Reference: ChEMBL document CHEMBL4311969, “Polygala tenuifolia-Acori tatarinowii herbal pair as an inspiration for substituted cinnamic α-asaronol esters: Design, synthesis, anticonvulsant activity, and inhibition of lactate dehydrogenase study” (Eur J Med Chem, 2019)
Where “and” joins values, the source holds several entries; their conditions need not be identical. Equal values may be shown once. Calls of active or inactive are those of the source. The calls are words filed in the database; no cut-off is given here.

Legend:
Mus musculus [1] = experiment: Anticonvulsant activity in Kunming mouse assessed as reduction in ScPTZ-induced tonic seizure rate at 300 mg/kg, ip administered 0.5 hrs before ScPTZ stimulation relative to control; format: functional; design: scale not given: the % may be the effect or the level left
[2] = (§1) Protective index, ratio of TD50 for neurotoxicity against ip dosed Kunming mouse assessed as time remained in rod measured at 0.5 hrs by rotarod test to ED50 for […] activity in ip dosed Kunming mouse assessed as reduction in formalin-induced paw licking administered 0.5 hrs before formalin stimulation; format: toxicity, organism-based; details: in vivo, read-out: PI
[3] = as §1, with “ScPTZ-induced seizure” for “formalin-induced paw licking”, “ScPTZ” for “formalin”; format: toxicity, organism-based; details: in vivo, read-out: PI
Mus musculus [4] = experiment: Anticonvulsant activity in Kunming mouse assessed as reduction in ScPTZ-induced tonic seizure rate at 100 mg/kg, ip administered 0.5 hrs before ScPTZ stimulation relative to control; format: functional; design: scale not given: the % may be the effect or the level left
Mus musculus [5] = experiment: Anticonvulsant activity in Kunming mouse assessed as reduction in ScPTZ-induced seizure at 100 mg/kg, ip administered 0.25 to 2 hrs before ScPTZ stimulation relative to control; format: functional
Mus musculus [6] = experiment: Anticonvulsant activity in Kunming mouse assessed as reduction in Sc3-MP-induced seizure at 300 mg/kg, ip administered 0.25 to 2 hrs before Sc3-MP stimulation relative to control; format: functional; design: scale not given: the % may be the effect or the level left
Mus musculus [7] = experiment: Anticonvulsant activity in Kunming mouse assessed as reduction in Sc3-MP-induced tonic seizure rate at 300 mg/kg, ip administered 0.5 hrs before Sc3-MP stimulation relative to control; format: functional; design: scale not given: the % may be the effect or the level left
Mus musculus [8] = experiment: Anticonvulsant activity in Kunming mouse assessed as MES-induced hind limb extension at 50 mg/kg, ip administered 0.5 and 2 hrs before MES stimulation relative to control; format: functional
[9] = Neurotoxicity against ip dosed Kunming mouse assessed as time remained in rod measured at 0.5 hrs by rotarod test; format: toxicity, organism-based; details: in vivo
Mus musculus [10] = experiment: Anticonvulsant activity in Kunming mouse assessed as MES-induced hind limb extension at 100 mg/kg, ip administered 0. 5 to 2 hrs before MES stimulation; format: functional, organism-based
Mus musculus [11] = experiment: Anticonvulsant activity in Kunming mouse assessed as reduction in Sc3-MP-induced seizure ip dosed measured at 0.5 hrs before Sc3-MP stimulation; format: functional
Mus musculus [12] = experiment: Anticonvulsant activity in Kunming mouse assessed as MES-induced hind limb extension at 100 mg/kg, ip administered 0. 5 to 4 hrs before MES stimulation relative to control; format: functional
[13] = Neurotoxicity against Kunming mouse assessed as time remained in rod at 100 mg/kg, ip administered 0.5 to 2 hrs by rotarod test; format: toxicity, organism-based; details: in vivo
[14] = as §1, with “Sc3-MP-induced seizure” for “formalin-induced paw licking”, “Sc3-MP” for “formalin”; format: toxicity, organism-based; details: in vivo, read-out: PI
Mus musculus [15] = experiment: Anticonvulsant activity in Kunming mouse assessed as reduction in ScPTZ-induced clonic seizure at 100 mg/kg, ip administered 0.5 hrs before ScPTZ stimulation relative to control; format: functional; design: scale not given: the % may be the effect or the level left
Mus musculus [16] = experiment: Anticonvulsant activity in Kunming mouse assessed as reduction in Sc3-MP-induced clonic seizure rate at 300 mg/kg, ip administered 0.5 hrs before Sc3-MP stimulation relative to control; format: functional; design: scale not given: the % may be the effect or the level left
Mus musculus [17] = experiment: Anticonvulsant activity in Kunming mouse assessed as reduction in ScPTZ-induced seizure at 300 mg/kg, ip administered 0.25 to 2 hrs before ScPTZ stimulation relative to control; format: functional; design: scale not given: the % may be the effect or the level left
Mus musculus [18] = experiment: Anticonvulsant activity in ip dosed Kunming mouse assessed as reduction in ScPTZ-induced seizure administered 0.5 hrs before ScPTZ stimulation; format: functional
Mus musculus [19] = experiment: Anticonvulsant activity in ip dosed Kunming mouse assessed as MES-induced hind limb extension administered 0.5 hrs before MES stimulation; format: functional
Mus musculus [20] = experiment: Anticonvulsant activity in Kunming mouse assessed as reduction in ScPTZ-induced clonic seizure at 300 mg/kg, ip administered 0.5 hrs before ScPTZ stimulation relative to control; format: functional; design: scale not given: the % may be the effect or the level left
[21] = Protective index, ratio of TD50 for neurotoxicity against ip dosed Kunming mouse assessed as time remained in rod measured at 0.5 hrs by rotarod test to ED50 for anticonvulsant activity in ip dosed Kunming mouse assessed as MES-induced hind limb extension administered 0.5 hrs; format: toxicity, organism-based; details: in vivo, read-out: PI
Mus musculus [22] = experiment: […] activity in ip dosed Kunming mouse assessed as reduction in formalin-induced paw licking administered 0.5 hrs before formalin stimulation; format: functional
Homo sapiens [23] = species: Homo sapiens; experiment: Inhibition of human LDH1 at 0.5 mM using sodium pyruvate as substrate by UV-VIS spectrophotometry method relative to control
Homo sapiens [24] = species: Homo sapiens; experiment: Inhibition of human LDH5 at 0.5 mM using sodium pyruvate as substrate by UV-VIS spectrophotometry method relative to control
Mus musculus [25] = experiment: Anticonvulsant activity in Kunming mouse assessed as reduction in ScPTZ-induced seizure at 100 mg/kg, ip administered 0.5 hrs before ScPTZ stimulation relative to control; format: functional; design: scale not given: the % may be the effect or the level left
Mus musculus [26] = experiment: Anticonvulsant activity in Kunming mouse assessed as MES-induced hind limb extension at 100 mg/kg, ip administered 3 hrs before MES stimulation; format: functional, organism-based
Mus musculus [27] = experiment: Anticonvulsant activity in Kunming mouse assessed as reduction in ScPTZ-induced seizure at 100 mg/kg, ip administered 1 hr relative to control; format: functional; design: scale not given: the % may be the effect or the level left
Mus musculus [28] = experiment: Anticonvulsant activity in Kunming mouse assessed as MES-induced hind limb extension at 50 mg/kg, ip administered 0.5 to 4 hrs before MES stimulation relative to control; format: functional
Homo sapiens [29] = species: Homo sapiens; experiment: Inhibition of human LDH1 at 2 mM using sodium pyruvate as substrate by UV-VIS spectrophotometry method relative to control
Homo sapiens [30] = species: Homo sapiens; experiment: Inhibition of human LDH5 at 2 mM using sodium pyruvate as substrate by UV-VIS spectrophotometry method relative to control
[31] = target: GABA-A receptor; alpha-1/beta-2/gamma-2 (Homo sapiens) (UniProt P14867+P47870+P18507); experiment: Agonist activity at GABA alpha1beta2gamma2 receptor in human HEK293T at 3.3 to 300 uM at -50 mV holding potential by whole cell voltage clamp assay relative to control; format: protein-complex assay
[32] = target: T1, GABA-A receptor; alpha-1/beta-2/gamma-2 (Homo sapiens, UniProt P14867+P18507+P47870); experiment: Agonist activity at GABA alpha1beta2gamma2 receptor in human HEK293T at -50 mV holding potential by whole cell voltage clamp assay; format: protein-complex assay
T1 sequence (P14867 whole entry): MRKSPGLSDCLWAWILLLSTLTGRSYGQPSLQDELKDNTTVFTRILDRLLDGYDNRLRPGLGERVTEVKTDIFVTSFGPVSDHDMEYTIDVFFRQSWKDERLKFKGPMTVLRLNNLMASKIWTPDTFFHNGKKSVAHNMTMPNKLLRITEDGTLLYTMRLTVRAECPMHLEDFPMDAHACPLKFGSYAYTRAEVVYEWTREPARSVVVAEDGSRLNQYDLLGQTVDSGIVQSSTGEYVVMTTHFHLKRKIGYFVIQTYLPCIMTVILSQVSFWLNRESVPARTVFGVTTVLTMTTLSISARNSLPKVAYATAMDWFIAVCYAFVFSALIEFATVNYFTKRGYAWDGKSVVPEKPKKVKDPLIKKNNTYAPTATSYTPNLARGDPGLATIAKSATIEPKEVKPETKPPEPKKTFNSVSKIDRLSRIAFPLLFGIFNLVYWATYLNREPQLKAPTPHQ
T1 sequence (P47870 whole entry): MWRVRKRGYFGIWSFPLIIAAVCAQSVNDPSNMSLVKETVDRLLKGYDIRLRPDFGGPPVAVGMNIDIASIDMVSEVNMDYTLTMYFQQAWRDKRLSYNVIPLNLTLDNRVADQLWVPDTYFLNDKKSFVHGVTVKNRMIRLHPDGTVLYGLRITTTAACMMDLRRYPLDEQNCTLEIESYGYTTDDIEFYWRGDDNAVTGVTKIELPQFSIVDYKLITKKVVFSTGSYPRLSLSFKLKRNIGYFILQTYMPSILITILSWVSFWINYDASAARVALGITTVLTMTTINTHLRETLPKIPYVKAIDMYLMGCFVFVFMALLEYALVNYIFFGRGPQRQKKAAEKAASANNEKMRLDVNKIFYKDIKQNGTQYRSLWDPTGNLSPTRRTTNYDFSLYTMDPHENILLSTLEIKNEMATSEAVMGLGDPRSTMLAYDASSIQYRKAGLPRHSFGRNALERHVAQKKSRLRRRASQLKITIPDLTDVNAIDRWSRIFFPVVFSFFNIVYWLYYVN
T1 sequence (P18507 whole entry): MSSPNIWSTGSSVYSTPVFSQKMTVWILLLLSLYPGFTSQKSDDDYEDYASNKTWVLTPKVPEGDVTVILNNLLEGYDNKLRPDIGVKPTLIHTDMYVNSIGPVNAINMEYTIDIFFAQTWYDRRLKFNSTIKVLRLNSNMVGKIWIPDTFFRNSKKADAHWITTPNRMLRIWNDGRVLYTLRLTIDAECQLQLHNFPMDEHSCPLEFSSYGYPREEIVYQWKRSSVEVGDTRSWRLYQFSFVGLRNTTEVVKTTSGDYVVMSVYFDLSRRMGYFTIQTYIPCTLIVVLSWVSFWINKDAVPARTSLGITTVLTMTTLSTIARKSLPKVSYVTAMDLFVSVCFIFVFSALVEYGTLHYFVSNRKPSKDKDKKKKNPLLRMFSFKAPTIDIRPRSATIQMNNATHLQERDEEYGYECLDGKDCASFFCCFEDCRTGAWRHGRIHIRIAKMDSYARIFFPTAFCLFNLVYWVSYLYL

## COc1cc(OC)c(OC)cc1/C=C/COC(=O)/C=C/c1cc(OC)c(OC)cc1OC
Mus musculus [1]
  Activity: 25%
[2]
  selectivity ratio at 0.5 h: 12.5
[3]
  selectivity ratio at 0.5 h: 5
Mus musculus [4]
  Activity: 100%
Mus musculus [5]
  Activity: inactive
Mus musculus [6]
  Activity: 0%
Mus musculus [7]
  Activity: 75%
Mus musculus [8]
  Activity: inactive
[9]
  TD50 at 0.5 h: > 2250 µmol/kg and > 1000 mg/kg
Mus musculus [10]
  Activity: Active
Mus musculus [11]
  ED50: > 300 mg/kg and > 675 µmol/kg
Mus musculus [12]
  Activity: 25 - 100%
[13]
  Activity: Non-Toxic
[14]
  selectivity ratio at 0.5 h: 3.3
Mus musculus [15]
  Activity: 100%
Mus musculus [16]
  Activity: 100%
Mus musculus [17]
  Activity: 50%
Mus musculus [18]
  ED50: > 200 mg/kg and 450 µmol/kg to 675 µmol/kg
Mus musculus [19]
  ED50: 165 µmol/kg and 73.5 mg/kg
Mus musculus [20]
  Activity: 100%
[21]
  selectivity ratio at 0.5 h: > 13.6
Mus musculus [22]
  ED50: 180 to 225 µmol/kg

## COc1ccc(/C=C/C(=O)OC/C=C/c2cc(OC)c(OC)cc2OC)cc1
Mus musculus [1]
  Activity: 0%
[2]
  selectivity ratio at 0.5 h: > 8.2
[3]
  selectivity ratio at 0.5 h: > 4.1
Homo sapiens [23]
  inhibition: inactive
Mus musculus [4]
  Activity: 100%
Mus musculus [5]
  Activity: inactive
Homo sapiens [24]
  inhibition: inactive
Mus musculus [6]
  Activity: 0%
Mus musculus [25]
  Activity: 100%
Mus musculus [26]
  Activity: Active
Mus musculus [7]
  Activity: 100%
Mus musculus [27]
  Activity: 75%
[9]
  TD50 at 0.5 h: > 1000 mg/kg and > 2600 µmol/kg
Mus musculus [10]
  Activity: Active
Mus musculus [11]
  ED50: > 300 mg/kg and > 780 µmol/kg
Mus musculus [12]
  Activity: 25 - 100%
[13]
  Activity: Non-Toxic
[14]
  selectivity ratio at 0.5 h: 3.3
Mus musculus [15]
  Activity: 100%
Mus musculus [16]
  Activity: 100%
Mus musculus [28]
  Activity: 50%
Mus musculus [17]
  Activity: 50%
Mus musculus [18]
  ED50: 244 mg/kg and 634 µmol/kg
Mus musculus [19]
  ED50: 70.6 mg/kg and 184 µmol/kg
Mus musculus [20]
  Activity: 100%
[21]
  selectivity ratio at 0.5 h: > 14.2
Mus musculus [22]
  ED50: 122 mg/kg and 317 µmol/kg

## CC(C)(C)C(O)/C=C/c1ccc2c(c1)OCO2 (configuration not stated) [STIRIPENTOL]
Homo sapiens [23]
  inhibition: inactive
Homo sapiens [24]
  inhibition: inactive
Homo sapiens [29]
  inhibition: 7 to 10%
Mus musculus [10]
  Activity: Active
[13]
  Activity: Non-Toxic
Homo sapiens [30]
  inhibition: 7 to 10%
[31]
  %max: 310%
[32]
  EC50: 46 µM
